In brackets after ≈: the same amount, converted by molar mass. Where two headings read alike, the source gives them in different places.
Experiments:
[1] = test system: HeLa (human cervical carcinoma) cells; test: Cell growth assay (XTT), HeLa; type: cell-based; conditions: 72 h drug exposure, read-out: Antiproliferative activity IC50 HeLa
Method: (§1) The presence of mycoplasma was routinely checked with MycoAlert kit (Lonza-Cambrex) and only mycoplasma-free cells were used in the experiments. Tumour cell lines were kindly provided by Dr Faustino Mollinedo from Centro de Investigaciones Biológicas Margarita Salas, Madrid, Spain. To determine cell growth, cells in exponential growth phase were seeded (100 µL/well in 96-well plates) with appropriate cell concentration (1.5 × 10^4 cells/mL for MCF7, HeLa and HEK-293 and 3 × 10^4 cells/mL for HT-29) in complete DMEM or RPMI 1640 medium (see above) at 37 °C and 5% CO2 atmosphere. After 24 h incubation, to allow cells to attach to the plates, all compounds were added at 1 µM concentration (10 µL/well in 96-well plates) and the effect on the proliferation was evaluated 72 h post-treatment. Compounds showing antiproliferative effects at tested concentration were selected for IC50 calculation (50% inhibitory concentration compared to the untreated controls) from 10^−5 to 10^−10 M concentration. Nonlinear curves fitting the experimental data were carried out for each compound. […] A freshly prepared mixture solution of XTT labelling reagent with 0.02% (v/v) PMS (N-methyl-dibenzopyrazine methyl sulfate) electron coupling reagent was added to cells (50 µL/well in 96-well plates, the total volume of 160 µL/well) and were incubated during the corresponding time according to each cell line (4 h for MCF7 and HeLa and 6 h for HT-29 and HEK-293) in a humidified atmosphere (37 °C, 5% CO2). The absorbance of the formazan product generated was measured at a test wavelength of 450 nm using a multi-well plate reader (Ultra Evolution, Tecan, Männedorf, Suiza). Compounds were dissolved in DMSO and the final solvent concentrations never exceeded 0.5% (v/v). The control wells included treated cells with 0.5% (v/v) DMSO and the positive control. 10 µM verapamil was included as a control for the HT-29 cell line. Measurements were performed in triplicate, and each experiment was repeated three times.

[2] = target: T1, microtubular protein isolated from calf brain (Bos taurus, UniProt P81947+Q6B856); test: Inhibition of tubulin polymerisation (turbidity); type: biochemical; conditions: for TPI % 10 µM: 10 µM compound, 1.5 mg/mL microtubular protein; for IC50: in vitro tubulin polymerisation inhibition, read-out: TPI IC50
T1 construct: isolated from calf brain according to the modified Shelanski method; from tissue; host or cells: calf brain
Method: Microtubular protein was isolated from calf brain according to the modified Shelanski method[23]^,[24] by two cycles of temperature-dependent assembly/disassembly and stored at −80 °C. Before each use, protein concentration is determined by Bradford method[25] taking BSA as standard. Tubulin polymerisation was monitored using a Helios α spectrophotometer by measuring the increase in turbidity at 450 nm, caused by a shift from 4 °C to 37 °C, which allows the in vitro microtubular protein to depolymerise and to polymerise, respectively. The assay was carried out in quartz cuvettes containing 1.5 mg/mL microtubular protein and the ligand (except for control cuvette with only DMSO at the same concentration) in a mixture of 0.1 M MES buffer, 1 mM EGTA, 1 mM MgCl2, 1 mM β-ME, and 1.5 mM GTP at pH 6.7 (final volume 500 µL). Cuvettes were preincubated at 20 °C for 30 min, to allow ligand binding to tubulin, and subsequently cooled on ice for 10 min. Then, the experiment starts at 4 °C to establish the initial baseline. The assembly process was initiated by a temperature shift to 37 °C and the turbidity produced by tubulin polymerisation can be measured by an absorbance increase. After reaching a stable plateau, the temperature was switched back to 4 °C to return to the initial absorption values (to confirm the reversible nature of the monitored process and to determine whether or not the microtubular protein has stabilized). The difference in amplitude between the stable plateau and the initial baseline of the curves was taken as the degree of tubulin polymerisation for each experiment. […] All compounds were tested at 10 µM concentration. IC50 values were calculated for compounds that inhibit tubulin polymerisation more than 50% at 10 µM. […] All the measurements were carried out in at least two independent experiments using microtubular protein from different preparations.

[3] = test system: MCF7 (human breast carcinoma) cells; test: Cell growth assay (XTT), MCF7; type: cell-based; conditions: Homo sapiens, MCF7; 72 h drug exposure, XTT; read-out: Antiproliferative activity IC50 MCF7
Method: as §1

[4] = test system: HT-29 (human colon carcinoma) cells; test: Cell growth assay (XTT), HT-29, alone or with verapamil; type: cell-based
Method: as §1, with “Compounds showing antiproliferative effects at tested concentration were selected for IC50 calculation (50% inhibitory concentration compared to the untreated controls) from 10^−5 to 10^−10 M concentration.” left out

[5] = Aqueous solubility (saturation shake-flask, UV); type: physicochemical; conditions: pH 7.0 phosphate buffer, room temperature; for solubility at 48 h: aqueous buffer, thermodynamic from solid
Method: The aqueous solubility was determined in a Helios-α UV-320 Spectrophotometer Thermo-Spectronic, Thermo Fischer Scientific, Waltham, MA, USA) using an approach based on the saturation shake-flask method. 1–2 mg of each selected compound was suspended in 300 µL pH 7.0 buffer and stirred for 48 h at room temperature. The resulting mixture was filtered through a […] filter to discard the insoluble residues. A scan between 270 and 400 nm for the tested compound was performed and three wavelengths of maximum absorbance were selected. Calibration curves were performed at these wavelengths and the concentration in the supernatant was measured by UV absorbance. The final value was given as the average of the three measurements.

[6] = Homo sapiens, HT-29, 72 h drug exposure, XTT, read-out: Antiproliferative activity IC50 HT-29
[7] = 72 h, in the presence of Pgp/MDR1 inhibitor verapamil (10 µM), read-out: Antiproliferative activity IC50 HT-29 Verap

T1 sequence (Q6B856 whole entry): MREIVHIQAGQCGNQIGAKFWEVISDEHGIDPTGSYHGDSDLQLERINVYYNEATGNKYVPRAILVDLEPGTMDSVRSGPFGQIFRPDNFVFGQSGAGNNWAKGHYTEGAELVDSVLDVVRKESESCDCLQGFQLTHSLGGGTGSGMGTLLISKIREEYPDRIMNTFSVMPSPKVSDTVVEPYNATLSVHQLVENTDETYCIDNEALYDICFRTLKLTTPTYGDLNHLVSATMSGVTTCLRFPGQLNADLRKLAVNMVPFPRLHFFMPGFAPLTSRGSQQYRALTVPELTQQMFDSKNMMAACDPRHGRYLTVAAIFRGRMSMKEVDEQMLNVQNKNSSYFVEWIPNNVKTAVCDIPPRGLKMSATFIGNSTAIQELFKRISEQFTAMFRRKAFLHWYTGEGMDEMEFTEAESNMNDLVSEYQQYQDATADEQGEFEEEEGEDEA
T1 sequence (P81947 whole entry): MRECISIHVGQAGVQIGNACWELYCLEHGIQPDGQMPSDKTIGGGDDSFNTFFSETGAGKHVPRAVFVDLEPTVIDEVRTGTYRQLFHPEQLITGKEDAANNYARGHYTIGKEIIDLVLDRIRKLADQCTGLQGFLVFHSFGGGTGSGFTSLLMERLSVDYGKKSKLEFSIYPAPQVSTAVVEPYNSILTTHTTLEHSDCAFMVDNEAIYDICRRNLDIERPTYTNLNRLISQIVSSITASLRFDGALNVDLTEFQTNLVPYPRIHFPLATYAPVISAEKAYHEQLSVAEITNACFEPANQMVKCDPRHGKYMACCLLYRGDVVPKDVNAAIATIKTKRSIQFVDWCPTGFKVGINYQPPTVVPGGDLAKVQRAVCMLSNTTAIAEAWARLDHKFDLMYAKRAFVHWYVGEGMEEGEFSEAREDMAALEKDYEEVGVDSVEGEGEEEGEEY

SMILES	IC50 [1] [µM]	TPI % 10 µM [2] [%]	IC50 [2] [µM]	melting point [°C]	IC50 [3] [µM]	IC50 [4, 6] [µM]	Aqueous solubility ([5]; 48 h) [µg/mL]	Difference of IC50 values HeLa vs HT-29 [4] [fold]	IC50 [4, 7] [µM]	solubility at 48 h [5] [µg/mL]
CCOC(=O)CN(c1cc(OC)c(OC)cc1Br)S(=O)(=O)c1ccc(OC)cc1 [Compound 17, Ethyl N-(2-bromo-4,5-dimethoxyphenyl)-N-((4-methoxyphenyl)sulphonyl)glycinate]	> 1	0	> 10	116 to 126	> 1	> 1	–	–	–	–
CCN(c1cc(OC)cc(OC)c1Br)S(=O)(=O)c1ccc(OC)cc1 [Compound 9b, N-(2-bromo-3,5-dimethoxyphenyl)-N-ethyl-4-methoxybenzenesulphonamide]	> 1	0	> 10	141 to 144	> 1	> 1	–	–	–	–
COc1ccc(S(=O)(=O)N(C)c2cc(OC)cc(OC)c2Br)cc1 [Compound 8b, N-(2-bromo-3,5-dimethoxyphenyl)-4-methoxy-N-methylbenzenesulphonamide]	> 1	0	> 10	156 to 160	> 1	> 1	–	–	–	–
CCOC(=O)CN(c1cc(OC)c(OC)cc1OC)S(=O)(=O)c1ccc(OC)cc1 [Compound 36, Ethyl N-((4-methoxyphenyl)sulphonyl)-N-(2,4,5-trimethoxyphenyl)glycinate]	> 1	0	> 10	127 to 132	> 1	> 1	–	–	–	–
COc1ccc(/C=C\c2cc(OC)c(OC)c(OC)c2)cc1O [Combretastatin A-4, combretastatin A-4, reference compound]	0.002	100	–	–	0.001	0.305	1	> 100	0.327	–
COc1ccc(S(=O)(=O)Nc2cc(OC)c(OC)cc2Br)cc1 [Compound 13, N-(2-bromo-4,5-dimethoxyphenyl)-4-methoxybenzenesulphonamide]	0.51	0	> 10	162 to 167	–	0.543	–	–	–	22 (≈ 54.7 µM)
COc1ccc(S(=O)(=O)N(C(=O)OCc2ccccc2)c2cc(OC)cc(OC)c2)cc1 [Compound 7, Benzyl (3,5-dimethoxyphenyl)((4-methoxyphenyl)sulphonyl)carbamate]	> 1	0	> 10	129 to 131	> 1	> 1	–	–	–	–
CCN(c1cc(OC)cc(OC)c1)S(=O)(=O)c1ccc(OC)cc1 [Compound 3, N-(3,5-dimethoxyphenyl)-N-ethyl-4-methoxybenzenesulphonamide]	> 1	0	> 10	109 to 118	> 1	> 1	–	–	–	–
COc1ccc(S(=O)(=O)N(CC#N)c2cc(OC)cc(OC)c2)cc1 [Compound 4, N-(cyanomethyl)-N-(3,5-dimethoxyphenyl)-4-methoxybenzenesulphonamide]	> 1	0	> 10	92 to 96	> 1	> 1	–	–	–	–
COc1ccc(S(=O)(=O)N(Cc2ccccc2)c2cc(OC)c(OC)cc2Br)cc1 [Compound 18, N-benzyl-N-(2-bromo-4,5-dimethoxyphenyl)-4-methoxybenzenesulphonamide]	> 1	38	> 10	114 to 120	> 1	> 1	–	–	–	–
COc1ccc(S(=O)(=O)N(Cc2ccccc2)c2cc(OC)cc(OC)c2)cc1 [Compound 6, N-benzyl-N-(3,5-dimethoxyphenyl)-4-methoxybenzenesulphonamide]	> 1	0	> 10	146 to 150	> 1	> 1	–	–	–	–
CCN(c1cc(OC)c(OC)cc1OC)S(=O)(=O)c1ccc(OC)cc1 [Compound 34, N-ethyl-4-methoxy-N-(2,4,5-trimethoxyphenyl)benzenesulphonamide]	0.313	19	> 10	–	0.715	0.5	–	–	1.07	122 (≈ 320 µM)
COc1ccc(S(=O)(=O)N(C)c2ccc(OC)c(OC)c2)cc1 [Compound 12, N-(3,4-dimethoxyphenyl)-4-methoxy-N-methylbenzenesulphonamide]	> 1	0	> 10	–	> 1	> 1	–	–	–	70 (≈ 207 µM)
COc1ccc(S(=O)(=O)N(CC(=O)O)c2cc(OC)c(Br)cc2OC)cc1 [Compound 29, N-(4-bromo-2,5-dimethoxyphenyl)-N-((4-methoxyphenyl)sulphonyl)glycine]	> 1	8	> 10	180 to 184	> 1	> 1	–	–	–	–
COc1ccc(S(=O)(=O)Nc2cc(OC)cc(OC)c2)cc1 [Compound 1, N-(3,5-dimethoxyphenyl)-4-methoxybenzenesulphonamide]	> 1	0	> 10	115 to 122	> 1	> 1	–	–	–	–
